The values below are quoted from earlier work in US20100003344A1, “Cosmetic Skincare Method Employing Mechanical Stresses” (L'OREAL, priority 2005, published 2010).

Series [1] deals with α2, α3, α6, αv and β1 integrins. To be noted: keratinocytes in culture or in reconstructed skins.
In series [2] the test system is β1 integrins. The settings on record: applied to the skin ex vivo.
In series [3] the test system is β1 integrins. The settings on record: cells in culture.
Another series deals with beta1 integrins. The settings on record: stated as known.
Series [4] relates to β1 integrins.

Read-outs that look alike come from different tables or passages of the source. Ends that are not written are not given here.

In the case of zinc gluconate, the “expression of integrins, in particular the α2, α3, α6, αv and β1 integrins” value (shortened to “expression of integrins”) in series [1] is “capable of increasing the expression of integrins”.
On to GPQGPQ [COLLAXYL], for which, in the series on β1 integrins [2], the “expression of β1 integrins” value is given as “stimulates the expression of β1 integrins”.
As for KLDAPT [VINCI 02], the “expression of β1 integrins” value in the series with β1 integrins [3] was “stimulates the expression of β1 integrins”. In the series with beta1 integrins, the “number of mechanoreceptors (beta1 integrins) on the surface of the keratinocytes” value is reported as “increase the number of mechanoreceptors”.
Turning to copper gluconate, in series [1], the “expression of integrins” value is listed as “capable of increasing the expression of integrins”.
On to RDFTKATNIRLRFLR [VINCI 01], for which the “expression of β1 integrins” value in the series with β1 integrins [4] is “stimulates the expression of β1 integrins”.
For manganese gluconate, the “expression of integrins” value in series [1] is on record as “capable of increasing the expression of integrins”. Besides, the “number of mechanoreceptors (beta1 integrins) on the surface of the keratinocytes” value in the series with beta1 integrins was “increase the number of mechanoreceptors”.
